System: C57BL/6J mice barrel cortex (layer 4)
Test: Synaptic function test: TC EPSC potency and GABA/AMPA ratio in barrel cortex (layer 4)
Assay type: in vivo
Source text: Eight weeks old male C57BL/6J mice were anesthetized with isoflurane during surgery. The mice were then be placed in a stereotaxic frame (RWD Life Science, China). The parietal and the frontal bones were exposed by a sagittal incision of the scalp at the midline from the level of the eyes to the occipital protuberance. A small burr hole was drilled after exposing the skull. The injection cannula was placed at the following coordinates: (Mouse: Bregma −3.30, lateral −1.50, and ventral 0.7 mm). Sterile saline solution (+/−a compound of the present disclosure) was perfused at a constant flow rate of 0.5 μL/h through the injection cannula using a mini-Os pump (DURECT Corporation ALZET Osmotic Pumps, CA). Implantation was done in layer 4 of the barrel cortex ipsilateral. To estimate extent of the diffusion of the injected compound in layer 4 barrel cortex during pump injection, methylene blue was first injected to stain the diffusion area. On average methylene blue diffused to […] away from the injection site (the total area of the barrel cortex region is about 1500 μm). Based on this analysis, the present inventors recorded from barrel cortex area.
2 mg of BnH12001 was dissolved in 800 ul of DMSO and prepared as a stock solution. For oral administration, BnH12001 DMSO stock:PEG400:Saline was mixed in a ratio of 5:55:40 and 200 μl/animal was administered. For the control group, a vehicle in which DMSO:PEG400:Saline was mixed in a 5:55:40 ratio was administered at 200 ul/animal. In the single drug administration test, the compound was administered once a day for about 11 to 12 days at a dose of 1 mg/kg. Dose response test was performed by administering the compound once a day for about 11 to 12 days at doses of 0.03, 0.1, 0.3, 1, 3, and 10 mg/kg. 5 mice were used for the compound administration group and the control group, respectively.
For TC or hippocampus slice preparation. 9 to 10 weeks-old male C57BL/6J mice were anesthetized with isoflurane. Then, the brain was rapidly cooled via transcardial perfusion with ice-cold sucrose-artificial cerebrospinal fluid (aCSF). The brain was removed and placed in ice-cold sucrose aCSF. Paracoronal slices were prepared at an angle of 50° relative to the midline on a ramp at an angle of 10°. Then, slices were incubated in aCSF at 35° C. for 30 minutes to recover. Slices were then incubated in aCSF at room temperature (23 to 25° C.) for 1 to 4 hours before being placed in the recording chamber for experiments. The standard aCSF contains saturated with 95% O2/5% CO2. The brain of the mouse was removed and cut into 400 μm at a 50° angle (mouse at a 55° angle) to attach the cut portion to the vibratome disc to be the bottom. Brain slice was incubated in 35° C. in aCSF solution for 30 minutes, or at RT in aCSF solution for 1 hour.
All electrophysiological experiments were conducted at 27 to 29° C. For electrophysiological experiments, electrodes with […] resistance were used and stimuli were applied to the ventral posteromedial nucleus (VPM) using a concentric bipolar electrode (FHC, Bowdoin, ME). The somatosensory cortex was identified by the presence of barrels under 4× magnification and differential interference contrast (DIC) optics, and by the ability to evoke short and constant latency field excitatory postsynaptic potentials (fEPSPs) by VPM stimulation. Whole-cell voltage-clamp recordings were made from stellate cells (SC) in layer IV of the somatosensory barrel cortex using infrared illumination and differential interference contrast (DIC) optics. The composition of whole cell recording solution is shown as follows:
Whole cell recordings were made using a multiclamp 700A (Molecular devices, Sunnyvale, CA) digitized at 10 kHz and filtered at 2 kHz. […]

[1] = oral, 1 mg/kg, 8-week-old C57BL/6J mice
[2] = applied to the mice barrel cortex using Alzet osmotic pump

**Q.** `C[C@H]1CC[C@@H](C(=O)O)CN1C(=O)Cc1ccc(F)cc1Cl` [BnH12001 enantiomer (3R,6S, 98%<), (3R,6S)-1-(2-(2-chloro-4-fluorophenyl)acetyl)-6-methylpiperidine-3-carboxylic acid] was tested. Which “Balance of excitation/inhibition (GABA/AMPA ratio)” value [1] did it give?
**A.** The value was “maintaining the balance of excitation/inhibition”.

**Q.** And the “Efficacy on TC synaptic potency compared among racemate and enantiomers” value [1]?
**A.** Its value is “better efficacy than the racemate”.

**Q.** What about the “TC synaptic potency in the sensory cortex” value [1] of the same molecule?
**A.** The value was “increase the TC synaptic potency”.

**Q.** Which “BDNF-induced augmentation of TC EPSC potency” value (cyclotraxin B 1 μM application) does the source give for cyclotraxin B [reference compound] here?
**A.** Its value is “almost completely prevented”.

**Q.** And the “BnH12001-induced increase of TC EPSC potency” value (cyclotraxin B 1 μM application)?
**A.** The value was “nearly completed hindered”.

B1: BDNF: brain-derived neurotrophic factor applied to the mice barrel cortex using Alzet osmotic pump (protein, UniProt P23560 19-247, looked up)
Neurotrophic factor BDNF …: APMKEANIRGQGGLAYPGVRTHGTLESVNGPKAGSRGLTSLADTFEHVIEELLDEDQKVRPNEENNKDADLYTSRVMLSSQVPLEPPLLFLLEEYKNYLDAANMSMRVRRHSDPARRGELSVCDSISEWVTAADKKTAVDMSGGTVTVLEKVPVSKGQLKQYFYETKCNPMGYTKEGCRGIDKRHWNSQCRTTQSYVRALTMDSKKRIGWRFIRIDTSCVCTLTIKRGR
**Q.** For B1, which IPSC/EPSC ratio [2] is on record?
**A.** The IPSC/EPSC ratio was “without alteration”.

**Q.** What about the “TC EPSC potency” value [2] of the same molecule?
**A.** Its value is “significantly increased”.

Reference: patent US20250188032A1, “NITROGEN-CONTAINING HETEROCYCLIC COMPOUNDS AND USES THEREOF” (BNH RESEARCH CO., LTD., priority 2022, published 2025)
